From US6465429B1, “Antimicrobial cationic peptides” (priority 1995, dated 2002)
Several values for one entry are separate records, joined by “and”; a condition that tells them apart may be missing. Equal entries are not always repeated. Entries after “also recorded” stand apart in the source; their conditions may differ. Ends that are not written are not given here.

Experiments:
E. coli ML 35 = test: Inner membrane permeabilization (β-galactosidase, ONPG); assay type: cell-based; details: for Lag Time / Rate of Hydrolysis: inner membrane permeabilization; for Lag Time: E. coli ML 35; for Rate of Hydrolysis: E. coli ML 35, ONPG
Description: Inner membrane permeability was determined by measurement in E. coli ML 35 of β-galactosidase activity using ONPG as a substrate. Normally ONPG cannot pass across the cytoplasmic membrane to permit hydrolysis by the cytoplasmic enzyme β-galactosidase. However, cationic peptides, by permeabilizing the inner membrane, unmasks this enzyme leading to color development as ONP is released. […] Addition of citrate increased the lag time before the peptides were able to permeabilize the membranes. When the experiments were executed in cation adjusted media (CAMHB), the lag time was increased up to 30 minutes.

[1] = system: LPS-induced TNF in RAW 264.7 macrophage cells; test: Inhibition of LPS-mediated TNF induction in macrophages (L929 cytotoxic assay); assay type: cell-based
Description: RAW 264.7 macrophage cells were grown by seeding 10^6 cells into a 162 cm^2 cell culture flask and incubated at 37° C., 5%CO2 for 1 week. RAW cell media [(Dulbecco's Modified Eagle Medium with Hepes buffer 450 ml; 2.4 mML-glutamine 3 ml (400 mM); Pen/Strep 3 ml (10^4U/ml of Pen, 1 mg/ml strep); and 10% heat inactivated fetal bovine serum (FBS) 50 ml)] was then completely removed from flasks. 10 mls of cell dissociation solution (Sigma) was added to each flask and inc; bated at 37° C. for 10 minutes. Cells were removed from flasks, diluted in RAW cell media and centrifuged for 6 minutes. The cell pellet was resuspended in 5 ml of media/flask used, 100 μl cell suspension was removed and added to 400 ∥l of trypan blue and cells were counted using a hemocytometer. The cell suspension was diluted to 1×10^6 cells/ml and 1 ml of suspension was added per well of a 24 well plate. The 24 well plates were incubated at 37° C., 5% CO2 overnight for use in the assay.
After an overnight incubation, the media was aspirated from all the wells. 100 μl of Lipopolysaccharide (LPS) was added at 100 ng/100 μl. CEME, CEMA or MBI 29 was added at the desired concentration/100 μl to specified wells. […] The plates were then incubated for six hours at 37° C., 5% CO2. The supernatant was then removed from the wells and stored overnight at 4° C. For those wells in which whole bacteria were added directly to the wells, the supernatant was centrifuged in 0.2 μm filter eppendorf tubes for 5 minutes.
The supernatants were then used in cell cytotoxic L929 assay. The samples were transferred to 96 well plates. […]
TNF-sensitive L929 mouse fibroblast cells were grown by seeding 10^6 cells into a 162 cm^2 cell culture flask and left to grow for 1 week. […] The pellet was resuspended in 5 mls of fresh L929 media/flask and counted (same as RAW cells). […]
The plates were read at 570 nm in a ELISA plate reader with 690 nm reference filter. […]
In order to determine how rapidly the cationic peptides reduced LPS-induced TNF production, E. coli 0111:B4 was added at time 0 to RAW macrophages. […] Levels of TNF were measured after 6 hours. […]

RAW cells = test: RAW cell viability by Trypan blue exclusion; assay type: cell-based
Red Blood Cells = test: Red Blood Cell lysis; assay type: cell-based
P. aeruginosa = test: microbe, parasite or virus in culture; details: agent alone
Description: FICs are performed by checkerboard titrations of peptides in one dimension of a microtiter plate, and of antibiotics in the other dimension, for example. The FIC is calculated by looking at the impact of one antibiotic on the MIC of the other and vice versa. […] Preferably, an FIC of less than 0.5 is obtained for synergism. As used herein, FIC can be determined as follows: [formula]
Synergism is identified as an FIC of about ≦0.5.

[2] = Synergy of MBI 26 with lysozyme and further antibiotics (reduction in MIC); assay type: cell-based; details: in combination with MBI 26 (1.25 μg/mL)
[3] = Dansyl polymyxin displacement assay; assay type: binding; details: Dansyl polymyxin displacement from LPS
Excerpt: In addition, the peptides of SEQ ID NO: 5-8 also bound effectively to LPS with high affinity based on Dansyl polymyxin displacement assays (Table 5).

[4] = α helical content by CD spectra; assay type: physicochemical
Description: The α helical content of the peptides were measured in buffer, liposomes and 20% Hexafluoroisopropanol (HFPIP). The liposomes constituted of POPC alone or POPC PC and 30% POPG (Table 7).

Candida albicans = test: MIC, broth dilution in LB-S; assay type: cell-based; parameters: unit not given beside the values; details: Candida albicans (CAN105); Table 1a
Description: The biological activity of the peptides can be determined by standard methods known to those of skill in the art, such as “minimal inhibitory concentration (MIC)” assay described in the present examples, whereby the lowest concentration at which no change in OD is observed for a given period of time is recorded as MIC. Alternatively, “fractional inhibitory concentration (FIC)” is also useful for determination of synergy between the peptides of the invention, or the peptides in combination with known antibiotics. FICs are performed by checkerboard titrations of peptides in one dimension of a microtiter plate, and of antibiotics in the other dimension, for example. The FIC is calculated by looking at the impact of one antibiotic on the MIC of the other and vice versa. […] Preferably, an FIC of less than 0.5 is obtained for synergism. As used herein, FIC can be determined as follows: [formula]
Briefly, cells were grown overnight at 37° C. in LB-S (Luria broth without any salt supplement) and diluted one in 10,000 in the same medium to give concentrations of about 10^4 to 10^5 CFU/ml. The broth dilutions were set up in a 96 well microtiter plate by putting 200 μl of LB-S containing the initial concentration of antibiotic or compound in column 1 and 100 μl of the same medium in columns 2-12. […] The next day the plates were scored for growth in the wells, and the MIC determined.

Row | Molecule | RBC Lysis (Red Blood Cells) | reduction in MIC [2] | Lag Time (E. coli ML 35) | Rate of Hydrolysis (E. coli ML 35) | Imax [3] | % α helicity ([4]; 20% HFIP) | % α helicity ([4]; Buffer) | % α helicity ([4]; POPC Liposomes) | % α helicity ([4]; POPC/POPG Liposomes) | also measured
1 | CC[C@H](C)[C@H](NC(=O)[C@H](CC(C)C)NC(=O)[C@H](C)NC(=O)[C@@H]1CCCN1C(=O)[C@H](CC(C)C)NC(=O)CNC(=O)[C@@H](NC(=O)[C@@H](NC(=O)[C@H](CC(C)C)NC(=O)[C@@H](NC(=O)[C@H](CCCCN)NC(=O)[C@H](CCCCN)NC(=O)[C@@H](NC(=O)[C@H](C)NC(=O)[C@@H](NC(=O)[C@@H](NC(=O)[C@H](CC(C)C)NC(=O)[C@H](CCCCN)NC(=O)[C@H](CCCCN)NC(=O)[C@@H](NC(=O)[C@H](Cc1ccccc1)NC(=O)[C@H](CO)NC(=O)[C@H](CCCCN)NC(=O)[C@H](Cc1c[nH]c2ccccc12)NC(=O)[C@@H](N)CCCCN)[C@@H](C)CC)[C@@H](C)O)[C@@H](C)O)C(C)C)C(C)C)[C@@H](C)O)[C@@H](C)O)C(=O)N[C@@H](CO)C(=O)O [MBI 29] | >55 µg/mL |  |  |  |  |  |  |  |  | effect of 5 mM Mg++ on inner membrane permeabilization (E. coli ML 35; 4 ug peptide, +5 mM Mg): the least affected by any of the conditions; TNF induction in washed RAW cells pre-incubated with peptide ([1]; 20 μg MBI 29 for 60 minutes, washed 3 times, then 10 ng or 100 ng LPS): 14,000-20,000 Units of TNF per ml; inhibition of TNF induction by LPS ([1]; E. coli 0111:B4 LPS, peptide added at 0, 30 and 60 minutes, TNF after 6 hours): inhibited TNF induction by LPS in a similar manner to polymyxin B; reduction of LPS-induced TNF when added after LPS ([1]; added 60 minutes after the addition of LPS): effective at reducing the ability of LPS to induce TNF; also recorded: distinct and reproducible advantage over polymyxin B; amount causing no apparent decrease in RAW cell viability (RAW cells): Up to 50 μg; MIC (P. aeruginosa; P. aeruginosa isolate 27, strain 14644): 128 µg/mL and 123 µg/mL; MIC (P. aeruginosa; P. aeruginosa isolate 28, strain 15036): 128 µg/mL; MIC (P. aeruginosa; Table 33, P. aeruginosa isolate 23, strain ATCC 27853): 32 μg · mL^1; MIC (P. aeruginosa; Table 33, P. aeruginosa isolate 24, strain 34): 16 μg · mL^1; MIC (P. aeruginosa; Table 33, P. aeruginosa isolate 25, strain 923-1): 32 μg · mL^1; MIC (P. aeruginosa; Table 33, P. aeruginosa isolate 26, strain 3101): 32 μg · mL^1; MIC (P. aeruginosa; Table 33, P. aeruginosa isolate 27, strain 14644): 32 μg · mL^1; MIC (P. aeruginosa; Table 33, P. aeruginosa isolate 28, strain 15036): 32 μg · mL^1; MIC (P. aeruginosa; Table 33, P. aeruginosa isolate 29, strain 15545): 32 μg · mL^1; MIC (P. aeruginosa; Table 33, P. aeruginosa isolate 30, strain B3999-1): 32 μg · mL^1; MIC (P. aeruginosa; Table 33, P. aeruginosa isolate 31, strain U7688-1): 32 μg · mL^1; MIC (P. aeruginosa; Table 33, P. aeruginosa isolate 32, strain W2897-1): 32 μg · mL^1; MIC (P. aeruginosa; Table 33, P. aeruginosa isolate 33, strain W5483-2): 32 μg · mL^1
2 | CO[C@@H]1[C@@H](OC(N)=O)[C@@H](O)[C@H](Oc2ccc3c(O)c(NC(=O)c4ccc(O)c(CC=C(C)C)c4)c(=O)oc3c2C)OC1(C)C [Novobiocin] |  | > 4 × |  |  |  |  |  |  |  | 
3 | CC1(C)S[C@@H]2[C@H](NC(=O)C(C(=O)O)c3ccccc3)C(=O)N2[C@H]1C(=O)O (some centres unmarked) [carbenicillin] |  | 2 × |  |  |  |  |  |  |  | 
4 | KWKKFIKELQKVLAPGGLLSNIVTSL [compound 493] | >55 µg/mL |  | 136 s | 0.14 ΔAU min^−1 | 56% | 42% | 0% | 18% | 20% | 
5 | KWKLFKKIGIGAVLKVLTTGLPALIS [CEME] |  |  |  |  |  |  |  |  |  | MIC (Candida albicans): ≧64
6 | KWKSFIKNLEKVLKKGPILANLVSIV [compound 491] | >55 µg/mL |  | 152 s | 0.14 ΔAU min^−1 | 24% | 44% | 0% | 0% | 15% | 
7 | KWKSFIKNLEKVLKPGGLLSNIVTSL [compound 490] | >55 µg/mL |  | 156 s | 0.081 ΔAU min^−1 | 40% | 41% | 0% | 29% | 27% | 
8 | Lysozyme |  | > 64 × |  |  |  |  |  |  |  | 
